Data: paper PMC3260207, “Site-Directed Mutations and the Polymorphic Variant Ala160Thr in the Human Thromboxane Receptor Uncover a Structural Role for Transmembrane Helix 4” (PLoS ONE, 2012)
Where a chain is given by its changes, count along the chain named. Where “and” joins values, the source holds several entries; their conditions need not be identical. Equal entries are not always repeated.

Assays:
Experiment in all cases: Intracellular calcium mobilization (Fluo-4NW) in transfected HEK293T cells
Format in all cases: cell-based
Conditions in all cases: read-out: EC50 of agonist U46619 (calcium mobilized), transiently transfected HEK293T cells, mean ± S.E
[1] = molecular target: T1, TP A160S mutant (Homo sapiens, UniProt P21731, A160S)
T1 construct: expressed in transfected cells; HEK293T (calcium assays)
T1 sequence (P21731 1-343 A160S): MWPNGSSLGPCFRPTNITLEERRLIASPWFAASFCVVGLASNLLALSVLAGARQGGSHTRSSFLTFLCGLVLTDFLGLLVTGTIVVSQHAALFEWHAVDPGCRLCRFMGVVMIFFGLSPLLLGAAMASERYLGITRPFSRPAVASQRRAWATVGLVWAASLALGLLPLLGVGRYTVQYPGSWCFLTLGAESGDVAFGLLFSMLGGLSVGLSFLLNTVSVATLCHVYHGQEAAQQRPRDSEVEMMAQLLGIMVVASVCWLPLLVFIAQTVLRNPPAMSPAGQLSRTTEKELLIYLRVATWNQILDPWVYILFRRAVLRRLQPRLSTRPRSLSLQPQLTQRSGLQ
Protocol: (§1) Amino acid substitutions were introduced into the synthetic TPα gene carried by the expression vector pMT4 as described previously, [29]. DNA sequences of all the mutated genes were verified by automated DNA sequencing. To minimize variations in transfection efficiency, the total amount transfected DNA was kept constant in all cases at 1 µg of DNA per 7×10^5 cells. The wild type TP or mutant genes were expressed in COS-1 cells using a DEAE-dextran based transient transfection method, [29], and in HEK293T cells using lipofectamine 2000 (Invitrogen). Except unless specified, the membranes prepared from COS-1 cells were used for radioligand binding assays and immunoblots. For intracellular calcium determination assays and immunofluorescence imaging, HEK293T cells were used. For transient transfections of HEK293T cells using the plasmid pMT4, lipofectamine 2000 (Invitrogen) mediated transfection was used as described by the manufacturer. Membranes were prepared using Buffers A and B and as described previously, [29]. The protein concentration in the resuspended membrane pellet was determined using a modified DC protein assay kit from Bio-Rad Laboratories (Hercules, CA).
(§2) Changes in intracellular calcium were measured by using the fluorescent calcium sensitive dye Fluo-4NW (Invitrogen). After 6–8 hours of transient transfection of HEK293T cells using lipofectamine 2000, 100,000 viable cells were plated into each well of a 96-well tissue culture treated BD-falcon optilux plates. Cells mock transfected with vector pMT4 alone were used as a negative control. Following 24 hours of incubation at 37°C, the media was removed and cells were incubated with the dye Fluo-4NW (Invitrogen) containing 77 µg/ml of probenecid for 1 hour, as recommended by the manufacturer. […] Dose–response curves were generated and EC50 values calculated by nonlinear regression analysis using PRISM software version 5.0 (GraphPad Software Inc, San Diego, CA) after subtracting the responses of mock-transfected cells stimulated with same concentrations of agonists.

[2] = molecular target: T2, TP A160T mutant (nsSNP variant) (Homo sapiens, UniProt P21731, A160T)
T2 construct: expressed in transfected cells; HEK293T (calcium assays)
T2 sequence (P21731 1-343 A160T): T1 sequence (P21731 1-343 A160S) with S160T
Protocol: as §1, §2

[3] = molecular target: T3, TP G164A mutant (Homo sapiens, UniProt P21731, G164A)
T3 construct: expressed in transfected cells; HEK293T (calcium assays)
T3 sequence (P21731 1-343 G164A): T1 sequence (P21731 1-343 A160S) with S160A, G164A
Protocol: as §1, §2

[4] = molecular target: T4, TP V110A mutant (Homo sapiens, UniProt P21731, V110A)
T4 construct: expressed in transfected cells; HEK293T (calcium assays)
T4 sequence (P21731 1-343 V110A): T1 sequence (P21731 1-343 A160S) with V110A, S160A
Protocol: as §1, §2

[5] = molecular target: T5, WT-TP (wild type human thromboxane A2 receptor TPα) (Homo sapiens, UniProt P21731)
T5 construct: expressed in transfected cells; HEK293T (calcium assays)
T5 sequence (P21731 1-343): T1 sequence (P21731 1-343 A160S) with S160A
Protocol: as §1, §2

Structure (SMILES): CCCCC[C@H](O)/C=C/[C@@H]1[C@@H](C/C=C\CCCC(=O)O)[C@H]2CO[C@@H]1C2 [U46619]
- EC50 [1]: 9.3 ± 0.3 nM
- EC50 [2]: 5.5 ± 0.3 nM
- EC50 [3]: 2.5 ± 0.2 nM
- EC50 [4]: 2.7 ± 0.2 nM
- EC50 [5]: 13 nM and 13.1 nM
